ChEMBL document CHEMBL4507274 (2021)

How the values were obtained:
[1] = target: Cyclin-dependent kinase-like 2 (Homo sapiens) (UniProt Q92772); conditions: Compound concentration 100.0 nM
[2] = system: Mast/stem cell growth factor receptor Kit (Homo sapiens), P10721 [D816H]; conditions: Compound concentration 100.0 nM
[3] = target: Myosin light chain kinase family member 4 (Homo sapiens) (UniProt Q86YV6); conditions: Compound concentration 100.0 nM
[4] = target: Tyrosine-protein kinase JAK1 (Homo sapiens) (UniProt P23458); conditions: Compound concentration 100.0 nM
[5] = target: STE20/SPS1-related proline-alanine-rich protein kinase (Homo sapiens) (UniProt Q9UEW8); conditions: Compound concentration 100.0 nM
[6] = system: Mast/stem cell growth factor receptor Kit (Homo sapiens), P10721 [A829P]; conditions: Compound concentration 100.0 nM
[7] = target: 5-hydroxytryptamine receptor 2B (Homo sapiens) (UniProt P41595); conditions: Compound concentration 10.0 uM
[8] = target: Protein kinase C theta type (Homo sapiens) (UniProt Q04759); conditions: Compound concentration 100.0 nM
[9] = target: Misshapen-like kinase 1 (Homo sapiens) (UniProt Q8N4C8); conditions: Compound concentration 100.0 nM
Misshapen-like kinase 1 (Homo sapiens), sequence (Q8N4C8 whole entry, looked up): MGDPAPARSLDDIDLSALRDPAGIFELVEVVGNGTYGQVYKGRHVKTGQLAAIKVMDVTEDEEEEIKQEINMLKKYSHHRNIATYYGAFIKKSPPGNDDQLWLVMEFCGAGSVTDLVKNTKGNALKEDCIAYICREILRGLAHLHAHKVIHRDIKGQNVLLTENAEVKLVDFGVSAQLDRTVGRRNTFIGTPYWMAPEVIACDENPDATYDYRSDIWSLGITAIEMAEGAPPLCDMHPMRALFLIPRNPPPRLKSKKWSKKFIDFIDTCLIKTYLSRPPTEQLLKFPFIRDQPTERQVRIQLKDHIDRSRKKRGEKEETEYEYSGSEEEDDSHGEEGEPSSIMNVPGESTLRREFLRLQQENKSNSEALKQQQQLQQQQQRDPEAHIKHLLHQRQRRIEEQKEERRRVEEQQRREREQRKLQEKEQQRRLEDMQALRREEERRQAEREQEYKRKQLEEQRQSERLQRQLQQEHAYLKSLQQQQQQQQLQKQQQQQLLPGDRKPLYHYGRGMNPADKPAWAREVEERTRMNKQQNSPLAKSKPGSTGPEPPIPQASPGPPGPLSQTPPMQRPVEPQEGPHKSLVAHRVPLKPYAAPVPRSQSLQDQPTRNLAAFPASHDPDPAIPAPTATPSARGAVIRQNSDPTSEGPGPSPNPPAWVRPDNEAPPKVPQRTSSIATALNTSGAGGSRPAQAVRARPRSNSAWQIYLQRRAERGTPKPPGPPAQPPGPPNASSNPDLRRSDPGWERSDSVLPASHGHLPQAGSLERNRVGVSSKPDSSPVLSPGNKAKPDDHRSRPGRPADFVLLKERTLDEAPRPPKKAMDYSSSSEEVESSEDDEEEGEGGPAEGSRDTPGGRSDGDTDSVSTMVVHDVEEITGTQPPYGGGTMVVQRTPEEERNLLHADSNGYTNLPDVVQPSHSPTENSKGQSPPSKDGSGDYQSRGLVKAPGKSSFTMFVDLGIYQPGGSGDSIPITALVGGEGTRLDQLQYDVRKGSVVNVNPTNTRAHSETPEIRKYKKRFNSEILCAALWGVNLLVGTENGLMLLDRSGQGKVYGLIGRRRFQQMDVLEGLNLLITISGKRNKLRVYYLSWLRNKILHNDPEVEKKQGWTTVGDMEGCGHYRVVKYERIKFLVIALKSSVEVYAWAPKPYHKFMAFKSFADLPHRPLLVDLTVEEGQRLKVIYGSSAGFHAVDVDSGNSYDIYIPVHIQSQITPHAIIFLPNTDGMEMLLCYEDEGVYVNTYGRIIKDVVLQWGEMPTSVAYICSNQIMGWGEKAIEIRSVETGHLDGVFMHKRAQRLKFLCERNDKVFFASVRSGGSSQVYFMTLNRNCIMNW

[10] = target: Angiopoietin-1 receptor (Homo sapiens) (UniProt Q02763); conditions: Compound concentration 100.0 nM
[11] = target: SRSF protein kinase 2 (Homo sapiens) (UniProt P78362); conditions: Compound concentration 100.0 nM
[12] = target: Serine/threonine-protein kinase PRP4 homolog (Homo sapiens) (UniProt Q13523); conditions: Compound concentration 100.0 nM
Serine/threonine-protein kinase PRP4 homolog (Homo sapiens), sequence (Q13523 whole entry): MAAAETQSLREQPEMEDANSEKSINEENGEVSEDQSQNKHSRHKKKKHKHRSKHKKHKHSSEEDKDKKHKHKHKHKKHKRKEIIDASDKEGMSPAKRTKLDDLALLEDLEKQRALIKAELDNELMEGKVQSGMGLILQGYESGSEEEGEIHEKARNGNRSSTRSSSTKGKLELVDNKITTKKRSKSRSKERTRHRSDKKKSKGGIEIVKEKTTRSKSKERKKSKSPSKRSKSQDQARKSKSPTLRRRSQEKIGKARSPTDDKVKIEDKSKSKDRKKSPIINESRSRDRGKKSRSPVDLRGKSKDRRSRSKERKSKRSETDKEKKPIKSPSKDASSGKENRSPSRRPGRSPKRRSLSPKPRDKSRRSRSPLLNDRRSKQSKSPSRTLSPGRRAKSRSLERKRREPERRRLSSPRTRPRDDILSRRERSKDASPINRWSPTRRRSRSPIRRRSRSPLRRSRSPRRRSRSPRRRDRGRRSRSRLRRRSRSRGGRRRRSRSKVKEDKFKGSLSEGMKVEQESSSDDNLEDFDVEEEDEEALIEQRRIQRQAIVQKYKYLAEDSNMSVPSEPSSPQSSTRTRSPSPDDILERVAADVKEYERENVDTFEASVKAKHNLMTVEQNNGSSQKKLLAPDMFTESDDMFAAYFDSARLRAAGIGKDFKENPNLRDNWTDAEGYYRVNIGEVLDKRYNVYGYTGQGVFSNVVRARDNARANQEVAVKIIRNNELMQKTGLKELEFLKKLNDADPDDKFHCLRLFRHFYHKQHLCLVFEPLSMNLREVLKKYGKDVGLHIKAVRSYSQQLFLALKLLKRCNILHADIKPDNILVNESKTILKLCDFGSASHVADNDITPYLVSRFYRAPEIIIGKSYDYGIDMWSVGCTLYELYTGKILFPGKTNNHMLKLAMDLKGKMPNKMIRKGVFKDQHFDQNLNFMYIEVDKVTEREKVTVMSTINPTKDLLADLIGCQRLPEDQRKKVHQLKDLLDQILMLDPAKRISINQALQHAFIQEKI

[13] = target: Ribosomal protein S6 kinase alpha-4 (Homo sapiens) (UniProt O75676); conditions: Compound concentration 100.0 nM
Ribosomal protein S6 kinase alpha-4 (Homo sapiens), sequence (O75676 whole entry, looked up): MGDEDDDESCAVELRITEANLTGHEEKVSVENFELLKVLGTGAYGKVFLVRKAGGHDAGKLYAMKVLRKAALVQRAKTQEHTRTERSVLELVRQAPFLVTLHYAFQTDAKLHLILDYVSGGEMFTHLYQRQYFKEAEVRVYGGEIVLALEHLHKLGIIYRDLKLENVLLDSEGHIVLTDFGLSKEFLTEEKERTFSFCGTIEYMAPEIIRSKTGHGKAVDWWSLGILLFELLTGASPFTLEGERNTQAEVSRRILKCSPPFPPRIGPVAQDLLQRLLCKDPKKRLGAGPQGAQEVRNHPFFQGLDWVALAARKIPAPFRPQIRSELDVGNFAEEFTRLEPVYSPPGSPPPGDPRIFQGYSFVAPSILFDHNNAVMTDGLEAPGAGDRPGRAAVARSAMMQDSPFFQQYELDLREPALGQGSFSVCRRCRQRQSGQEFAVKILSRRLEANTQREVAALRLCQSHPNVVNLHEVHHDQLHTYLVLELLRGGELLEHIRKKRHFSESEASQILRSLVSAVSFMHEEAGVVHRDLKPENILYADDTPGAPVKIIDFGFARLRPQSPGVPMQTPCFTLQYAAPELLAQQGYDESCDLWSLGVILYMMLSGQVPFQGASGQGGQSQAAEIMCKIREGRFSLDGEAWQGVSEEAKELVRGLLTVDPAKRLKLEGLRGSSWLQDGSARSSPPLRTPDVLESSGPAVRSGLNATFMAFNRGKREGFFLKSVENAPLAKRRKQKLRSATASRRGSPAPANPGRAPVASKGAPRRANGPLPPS

[14] = target: Tyrosine-protein kinase JAK3 (Homo sapiens) (UniProt P52333); conditions: Compound concentration 100.0 nM
[15] = target: Mitogen-activated protein kinase kinase kinase 14 (Homo sapiens) (UniProt Q99558); conditions: Compound concentration 100.0 nM
[16] = target: Beta-2 adrenergic receptor (Homo sapiens) (UniProt P07550); conditions: Compound concentration 10.0 uM
[17] = target: Protein kinase C delta type (Homo sapiens) (UniProt Q05655); conditions: Compound concentration 100.0 nM
[18] = target: Cyclin-dependent kinase 3 (Homo sapiens) (UniProt Q00526); conditions: Compound concentration 100.0 nM
Cyclin-dependent kinase 3 (Homo sapiens), sequence (Q00526 whole entry, looked up): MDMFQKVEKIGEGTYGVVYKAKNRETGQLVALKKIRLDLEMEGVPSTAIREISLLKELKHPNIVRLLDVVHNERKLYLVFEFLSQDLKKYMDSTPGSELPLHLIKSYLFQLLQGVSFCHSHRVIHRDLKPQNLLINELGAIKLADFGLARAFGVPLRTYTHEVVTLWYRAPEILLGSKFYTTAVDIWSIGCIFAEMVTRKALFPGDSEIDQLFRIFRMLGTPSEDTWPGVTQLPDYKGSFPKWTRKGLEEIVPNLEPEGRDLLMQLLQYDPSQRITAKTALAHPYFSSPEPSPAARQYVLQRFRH

[19] = target: Ephrin type-A receptor 8 (Homo sapiens) (UniProt P29322); conditions: Compound concentration 100.0 nM
[20] = target: Serine/threonine-protein kinase STK11 (Homo sapiens) (UniProt Q15831); conditions: Compound concentration 100.0 nM
[21] = system: Tyrosine-protein kinase ABL1 (Homo sapiens), P00519 [T315I]; conditions: Compound concentration 100.0 nM
[22] = system: Phosphatidylinositol 4,5-bisphosphate 3-kinase catalytic subunit alpha isoform (Homo sapiens), P42336 [M1043I]; conditions: Compound concentration 100.0 nM
[23] = target: Serine/threonine-protein kinase Nek3 (Homo sapiens) (UniProt P51956); conditions: Compound concentration 100.0 nM
[24] = target: D(1B) dopamine receptor (Homo sapiens) (UniProt P21918); conditions: Compound concentration 10.0 uM
[25] = target: Proto-oncogene tyrosine-protein kinase Src (Homo sapiens) (UniProt P12931); conditions: Compound concentration 100.0 nM
[26] = target: Myosin light chain kinase, smooth muscle (Homo sapiens) (UniProt Q15746); conditions: Compound concentration 100.0 nM
[27] = system: Tyrosine-protein kinase ABL1 (Homo sapiens), P00519 [E255K]; conditions: Compound concentration 100.0 nM
[28] = target: Discoidin domain-containing receptor 2 (Homo sapiens) (UniProt Q16832); conditions: Compound concentration 100.0 nM
[29] = target: Mitogen-activated protein kinase kinase kinase kinase 1 (Homo sapiens) (UniProt Q92918); conditions: Compound concentration 100.0 nM
[30] = target: Ribosomal protein S6 kinase alpha-3 (Homo sapiens) (UniProt P51812); conditions: Compound concentration 100.0 nM
Ribosomal protein S6 kinase alpha-3 (Homo sapiens), sequence (P51812 whole entry): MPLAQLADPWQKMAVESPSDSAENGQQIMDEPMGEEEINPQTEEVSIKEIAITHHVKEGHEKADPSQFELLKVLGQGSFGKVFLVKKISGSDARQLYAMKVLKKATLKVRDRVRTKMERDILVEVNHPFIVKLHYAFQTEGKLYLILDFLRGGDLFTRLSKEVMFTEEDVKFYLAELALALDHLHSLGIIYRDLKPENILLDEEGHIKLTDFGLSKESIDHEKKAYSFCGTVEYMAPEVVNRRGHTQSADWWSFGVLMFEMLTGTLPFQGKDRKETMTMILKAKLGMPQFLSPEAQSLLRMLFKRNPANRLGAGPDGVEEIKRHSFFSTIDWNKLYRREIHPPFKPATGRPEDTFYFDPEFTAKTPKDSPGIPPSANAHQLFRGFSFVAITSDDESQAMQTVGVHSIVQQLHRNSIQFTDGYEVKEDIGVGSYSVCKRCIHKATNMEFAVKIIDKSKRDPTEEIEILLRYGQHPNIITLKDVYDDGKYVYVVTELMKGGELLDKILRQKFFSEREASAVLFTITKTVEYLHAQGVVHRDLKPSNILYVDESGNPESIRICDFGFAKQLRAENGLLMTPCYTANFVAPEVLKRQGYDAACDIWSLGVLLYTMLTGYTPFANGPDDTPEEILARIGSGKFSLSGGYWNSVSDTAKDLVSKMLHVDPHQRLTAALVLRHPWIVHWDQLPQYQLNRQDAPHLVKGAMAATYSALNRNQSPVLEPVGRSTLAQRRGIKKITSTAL

[31] = target: Tyrosine-protein kinase Yes (Homo sapiens) (UniProt P07947); conditions: Compound concentration 100.0 nM
[32] = target: Cyclin-dependent kinase 17 (Homo sapiens) (UniProt Q00537); conditions: Compound concentration 100.0 nM
[33] = system: Tyrosine-protein kinase ABL1 (Homo sapiens), P00519 [T315I]; conditions: Compound concentration 100.0 nM; remark: listed apart in the source
[34] = target: Tyrosine-protein kinase Srms (Homo sapiens) (UniProt Q9H3Y6); conditions: Compound concentration 100.0 nM
[35] = target: D(4) dopamine receptor (Homo sapiens) (UniProt P21917); conditions: Compound concentration 10.0 uM
[36] = system: Tyrosine-protein kinase ABL1 (Homo sapiens), P00519 [Q252H]; conditions: Compound concentration 100.0 nM
[37] = target: Serine/threonine-protein kinase WNK3 (Homo sapiens) (UniProt Q9BYP7); conditions: Compound concentration 100.0 nM
[38] = target: Casein kinase I isoform gamma-3 (Homo sapiens) (UniProt Q9Y6M4); conditions: Compound concentration 100.0 nM
[39] = target: Kappa-type opioid receptor (Homo sapiens, UniProt P41145); conditions: Compound concentration 10.0 uM
[40] = target: Serine/threonine-protein kinase TBK1 (Homo sapiens) (UniProt Q9UHD2); conditions: Compound concentration 100.0 nM
[41] = target: TGF-beta receptor type-1 (Homo sapiens) (UniProt P36897); conditions: Compound concentration 100.0 nM
[42] = target: Serine/threonine-protein kinase PAK 1 (Homo sapiens) (UniProt Q13153); conditions: Compound concentration 100.0 nM
[43] = system: Mast/stem cell growth factor receptor Kit (Homo sapiens), P10721 [V559D,T670I]; conditions: Compound concentration 100.0 nM
[44] = target: Phosphatidylinositol 5-phosphate 4-kinase type-2 gamma (Homo sapiens) (UniProt Q8TBX8); conditions: Compound concentration 100.0 nM
Phosphatidylinositol 5-phosphate 4-kinase type-2 gamma (Homo sapiens), sequence (Q8TBX8 whole entry): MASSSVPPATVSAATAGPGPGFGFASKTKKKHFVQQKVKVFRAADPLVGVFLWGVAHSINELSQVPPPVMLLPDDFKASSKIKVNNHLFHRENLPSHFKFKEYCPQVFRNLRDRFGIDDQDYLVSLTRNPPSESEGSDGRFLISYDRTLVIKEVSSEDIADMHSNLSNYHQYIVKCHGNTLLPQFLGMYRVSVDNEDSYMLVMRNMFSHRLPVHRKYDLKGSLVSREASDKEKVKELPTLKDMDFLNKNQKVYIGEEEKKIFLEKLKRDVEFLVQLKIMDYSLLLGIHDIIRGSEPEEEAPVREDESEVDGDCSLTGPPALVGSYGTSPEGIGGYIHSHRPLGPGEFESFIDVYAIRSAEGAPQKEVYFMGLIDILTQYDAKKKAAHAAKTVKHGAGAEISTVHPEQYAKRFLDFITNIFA

[45] = system: Proto-oncogene tyrosine-protein kinase receptor Ret (Homo sapiens), P07949 [M918T]; conditions: Compound concentration 100.0 nM

Cyclin-dependent kinase-like 2 (Homo sapiens), sequence (Q92772 whole entry): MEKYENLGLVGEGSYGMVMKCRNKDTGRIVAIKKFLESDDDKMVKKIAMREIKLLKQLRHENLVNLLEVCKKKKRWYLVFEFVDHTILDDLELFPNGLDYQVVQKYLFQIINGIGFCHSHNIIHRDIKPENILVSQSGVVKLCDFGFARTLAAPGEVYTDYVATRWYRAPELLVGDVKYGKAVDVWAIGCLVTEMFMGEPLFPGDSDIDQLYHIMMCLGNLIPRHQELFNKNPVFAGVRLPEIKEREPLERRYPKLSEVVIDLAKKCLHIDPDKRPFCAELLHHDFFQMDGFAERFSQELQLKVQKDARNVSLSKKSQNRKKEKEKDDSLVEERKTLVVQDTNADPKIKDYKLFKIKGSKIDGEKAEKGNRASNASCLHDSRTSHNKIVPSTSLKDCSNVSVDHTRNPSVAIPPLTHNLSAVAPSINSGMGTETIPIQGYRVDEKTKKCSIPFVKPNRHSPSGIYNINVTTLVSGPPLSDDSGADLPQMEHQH

Cn1cc(Cl)c2c(Oc3c(F)cc(Nc4cc(Cl)nc(N)n4)cc3F)ccnc21 [BAY-4900]
residual activity [1]: 100% | residual activity [2]: 79% | residual activity [3]: 91% | residual activity [4]: 83% | residual activity [5]: 100% | residual activity [6]: 63% | inhibition [7]: 17.3% | residual activity [8]: 99% | residual activity [9]: 93% | residual activity [10]: 100% | residual activity [11]: 78% | residual activity [12]: 81% | residual activity [13]: 100% | residual activity [14]: 94% | residual activity [15]: 100% | inhibition [16]: 10.2% | residual activity [17]: 100% | residual activity [18]: 100% | residual activity [19]: 100% | residual activity [20]: 100% | residual activity [21]: 84% | residual activity [22]: 64% | residual activity [23]: 91% | inhibition [24]: 9.8% | residual activity [25]: 92% | residual activity [26]: 95% | residual activity [27]: 100% | residual activity [28]: 66% | residual activity [29]: 82% | residual activity [30]: 71% | residual activity [31]: 93% | residual activity [32]: 100% | residual activity [33]: 86% | residual activity [34]: 100% | inhibition [35]: 11.3% | residual activity [36]: 94% | residual activity [37]: 95% | residual activity [38]: 100% | inhibition [39]: 54.4% | residual activity [40]: 100% | residual activity [41]: 93% | residual activity [42]: 100% | residual activity [43]: 91% | residual activity [44]: 96% | residual activity [45]: 92%

Cc1c[nH]c2nccc(Oc3c(F)cc(Nc4cc(Cl)nc(N)n4)cc3F)c12 [BAY-549]
residual activity [1]: 93% | residual activity [2]: 95% | residual activity [3]: 100% | residual activity [4]: 84% | residual activity [5]: 94% | residual activity [6]: 70% | inhibition [7]: 10.4% | residual activity [8]: 66% | residual activity [9]: 100% | residual activity [10]: 95% | residual activity [11]: 75% | residual activity [12]: 89% | residual activity [13]: 83% | residual activity [14]: 92% | residual activity [15]: 92% | inhibition [16]: -7.12% | residual activity [17]: 100% | residual activity [18]: 97% | residual activity [19]: 87% | residual activity [20]: 100% | residual activity [21]: 80% | residual activity [22]: 66% | residual activity [23]: 75% | inhibition [24]: 21.9% | residual activity [25]: 100% | residual activity [26]: 80% | residual activity [27]: 100% | residual activity [28]: 57% | residual activity [29]: 73% | residual activity [30]: 79% | residual activity [31]: 96% | residual activity [32]: 81% | residual activity [33]: 84% | residual activity [34]: 100% | inhibition [35]: 11.4% | residual activity [36]: 91% | residual activity [37]: 90% | residual activity [38]: 100% | inhibition [39]: 64.6% | residual activity [40]: 96% | residual activity [41]: 81% | residual activity [42]: 100% | residual activity [43]: 83% | residual activity [44]: 100% | residual activity [45]: 100%
